The results in this text go back to patent US10005731B2, “Modulators of the retinoid-related orphan receptor gamma (ROR-gamma) for use in the treatment of autoimmune and inflammatory diseases” (Glaxo Group Limited, priority 2012, dated 2018).

One may read the IC50 as the concentration needed to halve the response being measured. A low value points to greater potency in that assay.

Structures can show the parent of a compound that is named as a salt.

Data set [1] can be described thus: In vitro percutaneous study (Franz diffusion cells, aqueous cream). Format: in vitro ADME, human. The source says: The in vitro percutaneous study is aimed to predict the level of percutaneous penetration obtained for a compound in a topical formulation for psoriasis. This assay coupled with the intrinsic potency of the compound are used to predict the likelihood of success of a compound to engage the target. The higher the ratio of the percutaneous penetration to the intrinsic potency, the higher the ratio of local skin concentration to the intrinsic potency and therefore the higher the chance of a compound to engage the target in a topical formulation.
The compounds were manufactured in a modified aqueous cream at pH=6.
The study was conducted with dermatomed abdominal human skin sourced from three skin donors using 2 cm2 Franz diffusion cells. The receiving fluid consisted of Bovine serum albumin (4% w/v) in 0.1% w/v sodium azide in Phospate Buffer Saline and was heated at 37° C. in order to obtain 32° C. at the skin surface. The cream formulation was applied on the donor side at a 10 mg dose, i.e. 5 mg/cm^2. The samples taken at the following time points: t=0, 3, 6, 9 and 24 h. The receiver samples were then assayed using a method based upon protein precipitation with acetonitrile followed by LC/MS/MS analysis. The percutaneous flux (in ng/cm^2/hr) was determined using the individual API (in a multiple composition) that had permeated into the receiver compartment over 24 hrs per cm^2.

The target of the next data set is T1, RORγ (Homo sapiens, UniProt P51449).
T1 construct: expressed in transfected cells
T1 sequence (P51449 1-497 isoform P51449-2): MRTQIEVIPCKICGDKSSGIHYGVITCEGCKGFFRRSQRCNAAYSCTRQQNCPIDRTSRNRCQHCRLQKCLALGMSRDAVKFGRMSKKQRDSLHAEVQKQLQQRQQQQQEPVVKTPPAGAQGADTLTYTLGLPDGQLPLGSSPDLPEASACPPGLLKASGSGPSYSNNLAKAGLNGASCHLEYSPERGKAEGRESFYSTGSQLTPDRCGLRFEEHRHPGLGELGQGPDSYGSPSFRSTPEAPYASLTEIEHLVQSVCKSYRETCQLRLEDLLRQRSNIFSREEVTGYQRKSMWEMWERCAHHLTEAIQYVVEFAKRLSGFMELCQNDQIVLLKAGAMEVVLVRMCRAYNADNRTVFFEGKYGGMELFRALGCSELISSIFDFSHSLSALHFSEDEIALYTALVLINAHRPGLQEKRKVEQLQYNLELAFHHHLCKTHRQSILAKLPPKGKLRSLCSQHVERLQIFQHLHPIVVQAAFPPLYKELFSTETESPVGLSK
Briefly: Jurkat cell luciferase assay (human IL17 promoter reporter, RORγt overexpression). Format: cell-based. The settings on record: mean pIC50; detection limit of the assay 5. The source says: RORγ is known to bind to a CNS (conserved non-coding sequences) enhancer element in the IL17 promoter. In this assay, RORγ activity is indirectly assessed using a luciferase reporter construct which contains the human IL17 promoter having the RORγ-specific CNS enhancer element. Inhibition of RORγ activity by a compound will result in a decrease in luciferase activity of Jurkat cells transfected with the reporter construct.
. For the 1.1 Kb fragment, PCR was used to amplify human IL17 proximal promoter region from genomic DNA of 293T cells using primers as follows: forward primer, 5′-[…]-3′ (SEQ ID NO. 4) (Xhol site is underlined) and reverse primer, 5′-[…]-3′ SEQ ID NO. 5) (HindIII site is underlined). The 1.1 kb DNA bands were excised, purified, and inserted into pMD19-T Simple Vector (Takara). After DNA sequencing confirmation, the 1.1 kb DNA was digested with XhoI and HindIII and inserted into XhoI/HindIII sites of pGL4.31[luc2P/GAL4UAS/Hygro] (Promega) to generate the pIL17-lkb-luc reporter construct. For the 1.9 Kb fragment, PCR was used to amplify human IL17 promoter region from genomic DNA using primers as follows: forward primer, 5′-[…]-3′ (SEQ ID NO. 6) (KpnI site is underlined) and reverse primer, 5′-[…]-3′ (SEQ ID NO. 7)(XhoI site is underlined). The resulting 1.9 kb DNA bands were excised, gel purified, and cloned into a pMD19-T Simple Vector (Takara). […] The 1.9 kb DNA fragment was released by double digestion with KpnI and XhoI and inserted into pIL17-lkb-luc to generate the luciferase reporter plasmid “pIL17-3kb-CNS-luc.” To overexpress RORγt, the full-length cDNA of human RORγt identical to the published sequence NM13 001001523 was cloned into pcDNA3.1 at the KpnI-NotI cloning sites to generate the RORγt overexpression plasmid “CDNA3.1DhRORγ49-8”. […]
Compounds were dissolved in DMSO at three concentrations, 10 mM, 400 uM and 16 uM, and were dispensed into 384-wells assay plate at 40 nl, 12.5 nl, 5 nl respectively. The volume was adjusted with pure DMSO to a give a final uniform volume of 40 nl Jurkat cells described above were counted and centrifuged. […]

On to `Cc1c(CN2CCN(C(=O)C3CCCC3)[C@@H](C)C2)cc(F)cc1NC(=O)c1cccc(C#N)c1` [Example 66, (S)-3-cyano-N-(3-((4-(cyclopentanecarbonyl)-3-methylpiperazin-1-yl)methyl)-5-fluoro-2-methylphenyl)benzamide], for which the “Flux over 24 hrs” value in data set [1] (1.0% w/w in aqueous cream pH=6, 5 mg/cm^2, human skin from three donors) is on record as 3.43 ng/cm^2/hr. In addition, the “ratio of percutaneous penetration (Flux) to intrinsic potency (Th17 cell differentiation assay IC50)” value in data set [1] (ranking among the three compounds tested) is reported as “highest ratio”. The half-inhibitory concentration (IC50) at RORγ is approximately 5.01 nM.

As for `Cc1c(CN2CCN(C(=O)C3CCCC3)[C@@H](C)C2)cc(Cl)cc1NC(=O)c1cccc(C#N)c1` [Example 193, (S)-N-(5-chloro-3-((4-(cyclopentanecarbonyl)-3-methylpiperazin-1-yl)methyl)-2-methylphenyl)-3-cyanobenzamide, trifluoroacetic acid salt], the IC50 on RORγ was approximately 2.51 nM.
